The subject of assay [1] is TRPV1, TRPV2, TRPV3, TRPV4, or TRPM8. In words: Effect on other thermoTRPs (summary statement). Format: cell-based. The source says:
TRPA1 inhibitors that can be employed in the practice of the present invention include compounds that interferes with the expression, modification, regulation or activation of TRPA1, or compounds that down-regulates one or more of the normal biological activities of TRPA1 (e.g., its ion channel). […] Various TRPA1-specific antagonists can be used in the instant invention. Some of these TRPA1-specific inhibitors are identified by the present inventors, as described in the Examples below. These compounds can be obtained commercially or are otherwise described in the art. One such compound is Compound 18, (Z)-4-(4-chlorophynyl)-3-methylbut-3-en-2-oxime. This compound can be obtained commercially from Maybridge (Cornwall, UK). Another example is Compound 40, N,N′-Bis-(2-hydroxybenzyl)-2,5-diamino-2,5-dimethylhexane, which has been described in U.S. Pat. No. 4,129,556. […] Thus, these two compounds can be readily used to treat or alleviate mechanical hyperalgesia as described in more detail below.

For assay [2], the target named is T1, TRPA1 (Homo sapiens, UniProt O75762). In words: TRPA1 block, test not specified. To be noted: summary statement.
Target sequence in this assay (O75762 whole entry, species assumed): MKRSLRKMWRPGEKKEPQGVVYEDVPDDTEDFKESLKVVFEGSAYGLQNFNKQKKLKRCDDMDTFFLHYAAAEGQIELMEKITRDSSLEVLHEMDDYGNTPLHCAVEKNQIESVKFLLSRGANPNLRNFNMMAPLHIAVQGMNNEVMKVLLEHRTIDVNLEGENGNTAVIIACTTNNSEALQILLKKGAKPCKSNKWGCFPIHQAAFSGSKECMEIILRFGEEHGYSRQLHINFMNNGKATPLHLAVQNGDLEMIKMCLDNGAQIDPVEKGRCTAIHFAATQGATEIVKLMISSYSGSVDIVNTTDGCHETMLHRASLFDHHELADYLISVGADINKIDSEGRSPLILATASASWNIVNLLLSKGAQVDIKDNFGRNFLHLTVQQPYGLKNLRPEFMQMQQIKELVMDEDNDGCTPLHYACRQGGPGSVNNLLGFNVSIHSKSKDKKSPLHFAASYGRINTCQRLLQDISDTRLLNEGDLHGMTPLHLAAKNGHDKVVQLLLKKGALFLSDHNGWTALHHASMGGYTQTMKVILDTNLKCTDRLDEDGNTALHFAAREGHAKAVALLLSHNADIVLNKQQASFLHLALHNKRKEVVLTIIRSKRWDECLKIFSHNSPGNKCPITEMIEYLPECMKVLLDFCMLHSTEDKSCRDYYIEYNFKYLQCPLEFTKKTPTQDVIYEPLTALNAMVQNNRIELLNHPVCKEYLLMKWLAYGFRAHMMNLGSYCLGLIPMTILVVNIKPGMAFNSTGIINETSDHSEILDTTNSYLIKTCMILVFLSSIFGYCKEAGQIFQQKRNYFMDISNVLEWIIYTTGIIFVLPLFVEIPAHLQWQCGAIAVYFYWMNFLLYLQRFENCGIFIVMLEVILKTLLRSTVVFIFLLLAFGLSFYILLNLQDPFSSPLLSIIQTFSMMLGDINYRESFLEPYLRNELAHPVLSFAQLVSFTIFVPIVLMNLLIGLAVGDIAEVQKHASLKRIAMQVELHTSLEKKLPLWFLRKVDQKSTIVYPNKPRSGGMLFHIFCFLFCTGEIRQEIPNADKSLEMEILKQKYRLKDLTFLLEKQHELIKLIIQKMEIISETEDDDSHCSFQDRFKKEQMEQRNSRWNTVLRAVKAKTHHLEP
Assay [3] relates to bradykinin (BK)-induced heat hyperalgesia. In words: Bradykinin-induced heat hyperalgesia. Format: in vivo. The settings on record: mice.
Description: (§3) Red symbols represent responses from CFA-injected (A), or BK-injected (B) hindpaws while blue symbols represent responses from the other noninjected hindpaws of the same animals. Circles represent responses upon compound 18 treatment, whereas triangles represent responses upon vehicle treatments (A-C). Von Frey thresholds are measured and averaged. (***p<0.001, *p<0.05, two-tailed Student's T-test). […] Red symbols represent responses from CFA-injected hindpaws while blue symbols represent responses from the other non-injected hindpaws of the same animals. Number of flicks, licks, paw raises for 10 min at each time point are counted and averaged (n=8, *p<0.05, two-tailed Student's T-test).
(§4) Behavioral assays: Mice (C57B16 Mus musculus) of 8-10 weeks in age and 150-250 g Sprague Dawley rats were used for all behavioral assays. Animals were acclimated for 20-60 min to their testing environment prior to all experiments. Students' T test was used for all statistical calculations. All error bars represent standard error of the mean (SEM). Thermal plates, Hargreaves method (Plantar Analgesia meter) and Von Frey apparatus (Dynamic Plantar Aesthesiometer) were from UGO Basile and Columbus instruments. […] Briefly, mice were acclimated for 60 min to their testing environment prior to all experiments. Baseline responses were measured first and then 10 nM BK was injected to the skin of left hindpaws. Von Frey threshold or paw withdrawal latency was measured at 5, 15 and 30 min post injection. 1 mM of compound 18 was sometimes coinjected to left hindpaws to test its analgesic effect. For CFA-induced hyperalgesia test, 5 μg CFA in 10 uL was injected into mice (Caterina et al., Science 288:306, 2000; and Cao et al., Nature 392:390, 1998) and 50 μg in 100 uL (1:1 emulsion of mineral oil and saline; Obata et al., J Clin Invest 115:2393, 2005) was injected into rats and in 24 hrs measurements were performed. Before the measurement, the animals were re-acclimated to the environment for 20-60 min. […]
Assay [4] concerns CFA-induced heat hyperalgesia. In words: CFA-induced heat hyperalgesia. To be noted: mice. Format: in vivo.
Description: as §3, §4
Assay [5] concerns BK-induced nociceptive mechanical behaviours. In words: Bradykinin-induced mechanical hyperalgesia (Von Frey threshold). To be noted: short term hyperalgesia model, 1 mM coinjected, mice. Format: in vivo.
Description: as §3
Behavioral assays: Mice (C57B16 Mus musculus) of 8-10 weeks in age and 150-250 g Sprague Dawley rats were used for all behavioral assays. Animals were acclimated for 20-60 min to their testing environment prior to all experiments. Students' T test was used for all statistical calculations. All error bars represent standard error of the mean (SEM). Thermal plates, Hargreaves method (Plantar Analgesia meter) and Von Frey apparatus (Dynamic Plantar Aesthesiometer) were from UGO Basile and Columbus instruments. […] Baseline responses were measured first and then 10 nM BK was injected to the skin of left hindpaws. Von Frey threshold or paw withdrawal latency was measured at 5, 15 and 30 min post injection. […]
Assay [6] relates to CFA-induced mechanical hyperalgesia. In words: CFA-induced mechanical hyperalgesia (Von Frey threshold). Format: in vivo. The settings on record: injected into hindpaw 24 hours after CFA, mice.
Another assay has as its target T2, mTRPA1 (Mus musculus, UniProt Q8BLA8).
T2 construct: expressed in transfected cells; host or cells: CHO cells (tetracycline-induced for PatchXpress; mTRPA1-pcDNA5 named for the transient labelling experiment)
In words: PatchXpress whole cell patch clamp, cinnamaldehyde-elicited current, CHO cells. Format: cell-based. The text has this: (§1) Mechanosensory neurons are often classified as high- or low-threshold, characterizing responses to pain and touch, respectively. We tested the mechanical threshold of TRPA1 by applying a wide range of negative pipette pressures (FIG. 1C). TRPA1-expressing CHO cells are activated at −90 mmHg or higher, consistent with native high-threshold mechanical receptors involved in sensing pain (Cho et al., J Neurosci 22:1238, 2002). […] Gadolinium (Gd^3+) is considered a blocker of native mechanically-gated ion channels in animal tissues (Martinac et al., Physiol Rev 81:685, 2001). […] FM1-43 is a styryl dye that specifically labels sensory cells by entering through open transduction channels. […] Furthermore, it was observed that 10 μM of FM1 -43 was able to block cinnamaldehyde-induced currents in TRPA1-expressing CHO cells (n=8).
FM1-43 experiments: The FM1-43 labeling of CHO cells transfected with mTRPA1 was performed as described (Meyers et al., J Neurosci 23:4054, 2003). Briefly, CHO cells were transfected using Fugene (Roche) with mTRPA1-pcDNA5. For mock transfection CHO cells were treated with Fugene, but without any plasmid DNA. 24 hrs after transfection the cells were incubated for 5 min with 200 μM cinnamaldehyde in physiological buffer (consisted of (in mM) 130 NaCl, 3 KCl, 2 MgCl2, 2 CaCl2, 10 HEPES, 10 glucose) at room temperature, followed by 3 min with 10 μM of FM1-43. The cells were then washed thoroughly and imaged. mTRPA1 and hTRPA1-expressing CHO cells were tested in whole cell patch clamp configuration using the PatchXpress (Axon Instruments) for the effect of the FM143 dye on TRPA1 activation. Cells were plated the day before testing and induced with 0.5 μg/ml tetracycline as previously described in Story et al., Cell 112:819, 2003. Immediately prior to testing, cells were trypsinized and resuspended in calcium-free DMEM media (Invitrogen). […] Holding currents at −80 mV were used for quantitative analysis of TRPA1 activation and inhibition. […]
Background: Patch clamp records ionic current or voltage across a cell membrane.

In assay [7] the target is T1, TRPA1. Described as above. Format: cell-based. Set-up: expressed in transfected cells; host or cells: CHO cell line. To be noted: 10 μM FM1-43 with 100 μM cinnamaldehyde, −80 mV. Here is the method:
FM1-43 experiments: The FM1-43 labeling of CHO cells transfected with mTRPA1 was performed as described (Meyers et al., J Neurosci 23:4054, 2003). Briefly, CHO cells were transfected using Fugene (Roche) with mTRPA1-pcDNA5. For mock transfection CHO cells were treated with Fugene, but without any plasmid DNA. 24 hrs after transfection the cells were incubated for 5 min with 200 μM cinnamaldehyde in physiological buffer (consisted of (in mM) 130 NaCl, 3 KCl, 2 MgCl2, 2 CaCl2, 10 HEPES, 10 glucose) at room temperature, followed by 3 min with 10 μM of FM1-43. The cells were then washed thoroughly and imaged. mTRPA1 and hTRPA1-expressing CHO cells were tested in whole cell patch clamp configuration using the PatchXpress (Axon Instruments) for the effect of the FM143 dye on TRPA1 activation. Cells were plated the day before testing and induced with 0.5 μg/ml tetracycline as previously described in Story et al., Cell 112:819, 2003. Immediately prior to testing, cells were trypsinized and resuspended in calcium-free DMEM media (Invitrogen). Recordings were performed in extracellular solution containing (in mM) 2.67 KCl, 1.47 KH2PO4, 0.5 MgCl2, 138 NaCl, 8 Na2HPO4, 5.6 glucose. The intracellular solution contained (in mM) 140 KCl, 10 HEPES, 20 glucose, 10 HEDTA and 1 μM buffered free Calcium. Holding currents at −80 mV were used for quantitative analysis of TRPA1 activation and inhibition. […]
Target sequence in this assay (O75762 whole entry): as the sequence (O75762 whole entry, species assumed) above

Assay [8] deals with T3, mouse TRPA1 (Mus musculus, UniProt Q8BLA8).
T3 construct: expressed in transfected cells; host or cells: CHO cells (tetracycline-induced for PatchXpress; mTRPA1-pcDNA5 named for the transient labelling experiment)
T3 sequence (Q8BLA8 whole entry): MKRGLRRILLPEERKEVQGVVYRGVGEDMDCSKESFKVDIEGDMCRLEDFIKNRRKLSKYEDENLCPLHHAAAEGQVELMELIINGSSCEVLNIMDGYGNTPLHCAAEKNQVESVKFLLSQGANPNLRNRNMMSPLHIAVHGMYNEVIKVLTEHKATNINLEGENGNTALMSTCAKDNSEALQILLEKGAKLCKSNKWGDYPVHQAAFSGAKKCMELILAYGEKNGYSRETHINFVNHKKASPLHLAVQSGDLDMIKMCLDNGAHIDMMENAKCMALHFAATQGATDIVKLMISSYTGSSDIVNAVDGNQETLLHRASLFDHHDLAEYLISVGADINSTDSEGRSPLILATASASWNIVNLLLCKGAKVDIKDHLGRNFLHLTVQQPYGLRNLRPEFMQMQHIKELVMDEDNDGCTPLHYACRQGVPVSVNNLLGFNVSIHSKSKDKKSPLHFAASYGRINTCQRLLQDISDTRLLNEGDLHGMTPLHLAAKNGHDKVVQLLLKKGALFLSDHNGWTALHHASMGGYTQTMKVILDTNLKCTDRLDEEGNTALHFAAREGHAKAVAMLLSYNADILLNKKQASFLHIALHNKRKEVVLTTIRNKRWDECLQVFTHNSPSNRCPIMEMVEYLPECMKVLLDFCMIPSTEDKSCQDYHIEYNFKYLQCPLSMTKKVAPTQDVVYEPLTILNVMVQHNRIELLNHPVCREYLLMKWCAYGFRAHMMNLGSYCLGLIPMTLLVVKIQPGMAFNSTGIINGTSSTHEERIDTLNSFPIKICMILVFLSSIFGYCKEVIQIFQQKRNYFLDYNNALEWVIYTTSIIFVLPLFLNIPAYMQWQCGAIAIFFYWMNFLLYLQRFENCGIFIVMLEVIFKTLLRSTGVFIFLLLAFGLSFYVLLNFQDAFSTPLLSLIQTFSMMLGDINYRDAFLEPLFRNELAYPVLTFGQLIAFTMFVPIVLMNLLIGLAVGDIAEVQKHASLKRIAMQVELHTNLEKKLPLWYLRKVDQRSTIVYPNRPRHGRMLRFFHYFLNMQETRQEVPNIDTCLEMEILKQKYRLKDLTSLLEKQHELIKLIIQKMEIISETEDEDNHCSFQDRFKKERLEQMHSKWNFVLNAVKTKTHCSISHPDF
In words: Whole-cell electrophysiology of TRPA1-expressing CHO cells (pressure, hyperosmolarity, cold). Format: cell-based. To be noted: for block of TRPA1 currents in response to hyperosmolarity: bath application, 2 min stimulus.
Description: We tested if TRPA1 is activated by mechanical forces. The electrophysiological behavior of thermoTRP-expressing Chinese Hamster Ovary (CHO) cells was investigated with two different assays of mechanical stress—pressure application using the recording pipette and changes in external osmolarity.
as §1
(§2) To ensure that the mechanical response we observe is not an artifact of heterologous expression system, we tested if native TRPA1-expressing neurons also respond to such stimuli. 5/6 cinnamaldehyde-sensitive (presumptive TRPA1-expressing) DRG neurons responded to an application of −200 mmHg of suction, while 0/21 cinnamaldehyde insensitive neurons responded (16 of 21 were capsaicin-sensitive) (FIG. 2B). Millimolar camphor was recently reported to inhibit basal currents and cold or agonist-activation of TRPA1.
Mammalian cell electrophysiology: ThermoTRP-expressing CHO cells (rat TRPV1, rat TRPV2, mouse TRPV3, rat TRPV4, mouse TRPM8, and mouse TRPA1), control CHO cells, and cultured rat DRG neurons were prepared as described in Story et al., Cell 112:819, 2003; and Bandell et al., Neuron 41:849, 2004. Electrophysiological recordings were performed as described in Bandell et al., Neuron 41:849, 2004. Briefly, CHO cells were clamped at −60 mV and 0.8 second ramps from −80 mV to +80 mV were run every 4 seconds. Currents from DRG neurons were recorded at −60 mV and for their current-voltage curve, 300 ms voltage step at +20 mV was used 40 ms before 800 ms ramp from -80 mV to +80 mV to minimize contamination of voltage gated Na^+ or Ca^2+ current. The pipette solution for temperature and hyperosmotic experiments consisted of (in mM) 140 CsCl, 5 EGTA, 10 HEPES, 2 MgATP, 0.2 NaGTP, titrated to pH 7.4 with CsOH. The base external solution for these experiments consisted of (in mM) 140 NaCl, 5KCl, 10 HEPES, 2CaCl2, 1MgCl2, titrated to pH 7.4 with NaOH. Mannitol was used to adjust osmolarity for hypertonic solutions. For mouse TRPV3 and rat TRPV2, external calcium was replaced with 5 mM EGTA. Gluconate was substituted for chloride in (±)-pressure and hypotonic experiments to eliminate the potential for endogenous swelling-activated chloride currents. For these experiments, pipette solution (295 mOsm) consisted of (in mM) 125 Cs-gluconate, 15CsCl, 5 EGTA, 10 HEPES, 2 MgATP, 0.2NaGTP, titrated to pH 7.4 with CsOH. The external solution consisted of (in mM) 90 Na-gluconate, 10 NaCl, 5 K-gluconate, 10 HEPES, 2 CaCl2, 1 MgCl2, titrated to pH 7.4 with NaOH. Osmolarity was adjusted with mannitol to 220 mOsm (hypotonic) or 298 mOsm 15 (isotonic). (±)-Pressure was hydrostatically delivered by the recording pipette using syringe pumping (Hamill et al., Annu Rev Physiol 59:621, 1997) and monitored through Pressure Monitor (World Precision Instruments). Warner temperature controller (TC-324B and CL-100) was used for the heating or cooling the perfused bath solutions. […] The number of cells (n) tested with -100 mmHg to −300 mmHg, ˜+100 mmHg, 450 mOsm, and 220 mOsm for each cell type, respectively, are: CHO cells, n=7, 14, 5, 12; TRPV1, n=6, 5, 7, 5; TRPV2, n=4, 5, 3, 5; TRPV3, n=3, 2, 3, 0; TRPM8, n=12, 4, 10, 0. […]

For a further assay, the system named is cultured rat DRG neurons. In words: Current response of cultured DRG neurons to negative pressure. Format: cell-based. The settings on record: 2 mM camphor, −150 mmHg.
Description: as §2
Mammalian cell electrophysiology: ThermoTRP-expressing CHO cells (rat TRPV1, rat TRPV2, mouse TRPV3, rat TRPV4, mouse TRPM8, and mouse TRPA1), control CHO cells, and cultured rat DRG neurons were prepared as described in Story et al., Cell 112:819, 2003; and Bandell et al., Neuron 41:849, 2004. Electrophysiological recordings were performed as described in Bandell et al., Neuron 41:849, 2004. […] Currents from DRG neurons were recorded at −60 mV and for their current-voltage curve, 300 ms voltage step at +20 mV was used 40 ms before 800 ms ramp from -80 mV to +80 mV to minimize contamination of voltage gated Na^+ or Ca^2+ current. […] (±)-Pressure was hydrostatically delivered by the recording pipette using syringe pumping (Hamill et al., Annu Rev Physiol 59:621, 1997) and monitored through Pressure Monitor (World Precision Instruments). […]

Assay [9] addresses T3, mouse TRPA1. In words: FLIPR calcium-influx assay, block of cinnamaldehyde activation, CHO cells. Format: cell-based.
Description: Calcium influx was measured using a standard FLIPR assay, data points are the average of 4 wells (˜8,000 cells/well) and error bars show standard error. […] Data was generated using the FLIPR calcium-influx assay, n=3 wells (˜8,000 cells/well) and normalized to the maximal response. Bars show standard error and solid curves are hill equation fits from which EC50 values are derived.
Using FLIPR calcium-influx assay, we screened 43,648 small molecules for their ability to block cinnamaldehyde-activation of human TRPA1 in a CHO cell line.
FLIPR Screen: CHO cells expressing human TRPA1 were plated into 384 well plates at a concentration of ˜8,000 cells/well. Cells were transferred to phosphate-buffered saline (PBS) and loaded with the calcium sensitive dye FLUO-4 using the FLIPR Calcium 3 Assay Kit (Molecular Devices, Sunnyvale, Calif.) 1 hour prior to the assay. Assays were run using the FLIPR2 (Molecular Devices, Sunnyvale, Calif.). All compounds were diluted into PBS from a high concentration DMSO-based stock solution and added during data collection with the FLIPR2 internal pipette head. Final DMSO concentrations never exceeded 0.5%.

“Also recorded” adds a separate entry of the source.

T2 sequence (Q8BLA8 whole entry): as above

Regarding `CC(C)(CCC(C)(C)NCc1ccccc1O)NCc1ccccc1O` [Compound 40, N,N′-Bis-(2-hydroxybenzyl)-2,5-diamino-2,5-dimethylhexane], in assay [1], the “effect on activation or activities of the other thermoTRPs” value is “little or no effect”. The “inhibition of TRPA1 activation or function” value against TRPA1 [2] is “specifically inhibit TRPA1 activation or function; also recorded: blocks TRPA1”. The BK-induced heat hyperalgesia entry in [3] is given as “very similar results”. In addition, in assay [4], the CFA-induced heat hyperalgesia entry is recorded as “very similar results”. In [5], the “BK-induced mechanical nociceptive behavior” value is recorded as “very similar results”. For the same compound, the CFA-induced mechanical hyperalgesia entry in [6] is recorded as “very similar results”.
For `CCCCN(CCCC)c1ccc(/C=C/c2cc[n+](CCC[N+](CC)(CC)CC)cc2)cc1.[Br-].[Br-]` [FM1-43], at mTRPA1 (10 μM FM1-43), the “block of cinnamaldehyde-induced currents in TRPA1-expressing CHO cells” value is recorded as “able to block”. Further, the “cells in which an inhibition of the current was observed” value on mTRPA1 (10 μM FM1-43 with 100 μM cinnamaldehyde, −80 mV) is recorded as 7/8; at TRPA1 [7] it was 3/4. In addition, at mTRPA1 (10 μM FM1-43 with 100 μM cinnamaldehyde, average stated for mTRPA1 and hTRPA1 cells together), the “block in current, on average” value came to 50%.
As to `[Gd+3]` [Gd3+, Gadolinium], the “block of TRPA1 currents in response to negative pressure” value at mouse TRPA1 [8] (10 μM Gd3+, -100 mmHg) was “completely and reversibly blocked”. The “block of TRPA1 currents in response to hyperosmolarity” value on mouse TRPA1 [8] (10 μM Gd3+, 450 mOsm) was “completely blocks”; on mouse TRPA1 [8] (10 μM Gd3+, 450 mOsm, listed as Gd^3+), “completely and reversibly blocked”.
For `CC12CCC(CC1=O)C2(C)C` (stereo not shown) [camphor], the “block of current activation of TRPA1 upon (−) pressure in CHO cells” value at mouse TRPA1 [8] (2 mM camphor, −100 mmHg) was “completely block”. Further, the “block of current response of DRG neurons to (−) pressure” value in the assay on cultured rat DRG neurons is listed as “completely blocks; also recorded: fully inhibited”.
Turning to `O=CC=Cc1ccccc1` [cinnamaldehyde], the EC50 – broadly, the midpoint of the concentration-response curve – amounted to 50 µM on mouse TRPA1 [9] (control (no compound 18)) and 220 µM on mouse TRPA1 [9] (with 25 μM compound 18).
For the compound `N.N.N.N.N.N.N.N.N.N.N.N.N.N.[Cl-].[Cl-].[Cl-].[Cl-].[Cl-].[Cl-].[O-2].[O-2].[Ru+3].[Ru+3].[Ru+4]` [ruthenium red], on mouse TRPA1 [8] (5 μM ruthenium red, 450 mOsm), the “block of mechanosensitive TRPA1 currents upon hyperosmolarity” value is “completely blocked”. Besides, on mouse TRPA1 [8] (5 μM ruthenium red, -100 mmHg), the “block of mechanosensitive TRPA1 currents upon (−) pressure” value is “completely blocked”.

The values are drawn from patent US20090175882A1, “METHODS AND COMPOSITIONS FOR TREATING HYPERALGESIA” (IRM LLC, priority 2006, published 2009).
